The term Ki denotes the equilibrium dissociation constant of an inhibitor or competing ligand from its target. Read a low Ki as tighter binding.

The assay is filed under the species Rattus norvegicus. Nature of the assay: The compound was tested for inhibition of Sodium-Phosphate co-transport in rat renal Brush border membrane. The assay is classed as functional.

Structures are written as SMILES.

With `O=P(O)(O)C(F)P(=O)(O)c1ccccc1` (stereo unspecified), the Ki came to 360 µM.

The values are drawn from ChEMBL document CHEMBL1128314, “Absolute configuration of (+)-[fluoro(hydroxyphenylphosphinyl)methyl]-phosphonic acid, a specific inhibitor of Na(+)-gradient-dependent Na(+)-phosphate cotransport across renal brush border membrane, by X-ray crystallographic analysis of its (-)-quinine salt” (J Med Chem, 1995).
